Seven compounds from patent US8017780B1, “Therapeutic compounds and uses thereof” (Myrexis, Inc., priority 2008, dated 2011) can be followed below.

In this assay the target is T1, purified human Hsp90.
T1 construct: purified human Hsp90 (Stressgen, SPP-770)
Put plainly: Hsp90 binding assay: displacement of BODIPY-labeled geldanamycin by fluorescence polarization. The following applies: BODIPY-GM 10 nM, purified human Hsp90 30 nM, overnight at room temperature; read-out: GM Displacement From Purified Hsp90 measured by FP. As for the experimental part:
The binding of exemplary compounds to purified Hsp90 can be assayed by measuring the displacement of BODIPY-labeled geldanamycin (BODIPY-GM) from purified human Hsp90, using a fluorescence polarization assay adapted from Kim et al. (Journal of Biomolecular Screening […]. Compound dilutions (in 100% DMSO) are added to black-bottom 96-well plates (Greiner; 2% DMSO final), and equal volumes of BODIPY-GM (10 nM final) and purified human Hsp90 (Stressgen, SPP-770; 30 nM final) in assay buffer (20 mM HEPES-KOH pH 7.3, 50 mM KCl, 5 mM MgCl2, 20 mM Na2MoO4, 0.01% NP-40, 0.1 mg/mL bovine gamma globulin [Invitrogen, P2045], 2 mM DTT) are added sequentially to yield a final volume of 50 microliters. Plates are incubated overnight at room temperature. Parallel and perpendicular fluorescence measurements are read (LJL BioSystems Analyst AD plate reader) at excitation/emission wavelengths of 485/530 nm. Background fluorescence (buffer only) is subtracted, and fluorescence polarization (FP) values, expressed in mP units, are calculated from parallel and perpendicular fluorescence readings as follows: FP=(parallel−perpendicular)/(parallel+perpendicular)*1000.
Percent inhibition is calculated by normalizing the FP values to those obtained in parallel reactions containing DMSO and subtracting these normalized values from 100%. Intrinsic compound fluorescence is independently monitored, and FP data points confounded by compound fluorescence are excluded from the analysis.
Background: Polarisation of emitted light reports the rotation of a fluorescent probe.
In the case of `CC(=O)O[C@@H](C)C(=O)N1CCC(CCn2c(Sc3cc4c(cc3N(C)C)OCO4)nc3c(N)nccc32)CC1` [Example 9, (2S)-1-[4-(2-{4-Amino-2-[(6-(dimethylamino)-1,3-benzodioxol-5-yl)sulfanyl]-1H-imidazo[4,5-c]pyridin-1-yl}ethyl)piperidin-1-yl]-1-oxopropan-2-yl acetate], the IC50 stood at 79 nM.
As for `CN(C)c1cc2c(cc1Sc1nc3c(N)nccc3n1CCC1CCN(C=O)CC1)OCO2` [Example 8], the IC50 turned out to be 110 nM.
Turning to `Nc1nccc2c1nc(Sc1cc3c(cc1Br)OCO3)n2CCc1ccccc1Cl` [Example 3, 2-[(6-Bromo-1,3-benzodioxol-5-yl)sulfanyl]-1-[2-(2-chlorophenyl)ethyl]-1H-imidazo[4,5-c]pyridin-4-amine], the IC50 turned out to be 2400 nM.
With `CC(=O)N1CCC(CCn2c(Sc3cc4c(cc3Br)OCO4)nc3c(N)nccc32)CC1` [Example 2, 1-[4-(2-{4-Amino-2-[(6-bromo-1,3-benzodioxol-5-yl)sulfanyl]-1H-imidazo[4,5-c]pyridin-1-yl}ethyl)piperidin-1-yl]ethanone] the figure was 5000 nM; with `C[C@H](O)C(=O)N1CCC(CCn2c(Sc3cc4c(cc3N(C)C)OCO4)nc3c(N)nccc32)CC1` [Example 10, (2S)-1-[4-(2-{4-Amino-2-[(6-(dimethylamino)-1,3-benzodioxol-5-yl)sulfanyl]-1H-imidazo[4,5-c]pyridin-1-yl}ethyl)piperidin-1-yl]-2-hydroxypropan-1-one], 110 nM.
As for `C[C@H](O)C(=O)N1CCC(CCn2c(Sc3cc4c(cc3Br)OCO4)nc3c(N)nccc32)CC1` [Example 5, (2S)-1-[4-(2-{4-Amino-2-[(6-bromo-1,3-benzodioxol-5-yl)sulfanyl]-1H-imidazo[4,5-c]pyridin-1-yl}ethyl)piperidin-1-yl]-2-hydroxypropan-1-one], the IC50 was determined as 1000 nM.
As to `Nc1nccc2c1nc(Sc1cc3c(cc1Br)OCO3)n2CCC1CCN(C=O)CC1` [Example 1, 4-(2-[4-Amino-2-[(6-bromo-1,3-benzodioxol-5-yl)sulfanyl]-1H-imidazo[4,5-c]pyridin-1-yl]ethyl)piperidine-1-carbaldehyde], the IC50 was 5000 nM.
